Laboratory results published in patent US20150291610A1, “C20' Urea Derivatives of Vinca Alkaloids” (THE SCRIPPS RESEARCH INSTITUTE, priority 2012, published 2015).
pIC50: −log10 of the molar value. Like-named read-outs stand apart in the source and are kept apart here.

Assays:
[1] = system: L1210 (mouse lymphocytic leukemia) cells; assay: Cell growth inhibition assay, L1210; assay type: cell-based; settings: L1210 murine leukemia cell line; avg of 4-16 determinations
[2] = system: HCT116/VM46 (vinblastine-resistant strain of HCT116, Pgp over-expression) cells; assay: Cell growth inhibition assay, HCT116/VM46; settings: read-out: IC50 (nM) HCT116/VM46; resistant human colon cancer cell line, Pgp over-expression
porcine tubulin = target: T1, porcine tubulin (Sus scrofa, UniProt P02550+P02554); assay type: binding; settings: for tubulin binding affinity compared with vinblastine: in words
T1 construct: purified porcine tubulin; purchased Cytoskeleton, Inc
Text: [Owellen et al., Biochem. Pharmacol. 1977 26:1213-1219.] […] Millipore Steriflip® filter units were used to wash the filter paper with buffer under mild suction.

[3] = system: AU565 (Breast, overexpression of her2/neu); assay: 15-cell line panel, independent laboratory: AU565; assay type: cell-based, human
NCI-H520 (Lung) = assay: 15-cell line panel: NCI-H520; assay type: cell-based, human; settings: independent laboratory panel
[4] = system: HCC1143 (Breast, triple negative); assay: 15-cell line panel: HCC1143; assay type: cell-based, human; settings: independent laboratory panel
[5] = system: HCC70 (Breast, overexpression of p53); assay: 15-cell line panel: HCC70; assay type: cell-based, human; settings: independent laboratory panel
[6] = system: KPL4 (Breast, overexpression of erbB2); assay: 15-cell line panel: KPL4; assay type: cell-based, human; settings: independent laboratory panel
LNCaP-FGC (Prostate) = assay: 15-cell line panel: LNCaP-FGC; assay type: cell-based, human; settings: independent laboratory panel; for IC50: read-out: IC50 (nM) LNCaP-FGC
[7] = system: LS174T (Colon, high levels of MUC2 mRNA); assay: 15-cell line panel: LS174T; assay type: cell-based, human; settings: independent laboratory panel
[8] = system: MCF-7 (Breast, overexpression of her2/neu); assay: 15-cell line panel: MCF-7; assay type: cell-based, human; settings: independent laboratory panel; > = highest concentration tested
[9] = system: MDA-MB-468 (Breast, triple negative, amplified EGFR); assay: 15-cell line panel: MDA-MB-468; assay type: cell-based, human; settings: independent laboratory panel
[10] = system: SW403 (Colon, KRAS^G12V mutation); assay: 15-cell line panel: SW403; assay type: cell-based, human; settings: independent laboratory panel
[11] = system: T47D (Breast, mutant p53); assay: 15-cell line panel: T47D; assay type: cell-based, human; settings: independent laboratory panel
[12] = system: ZR-75-1 (Breast, overexpression of her2); assay: 15-cell line panel: ZR-75-1; assay type: cell-based, human; settings: independent laboratory panel
[13] = system: PA-1 (Ovary, overexpression of AIB1); assay: 15-cell line panel: PA-1; assay type: cell-based, human; settings: independent laboratory panel
[14] = system: HCT116/VM46 (Colon, vinblastine resistant); assay: 15-cell line panel: HCT116/VM46; assay type: cell-based, human; settings: independent laboratory panel; for IC50: > = highest concentration tested
[15] = system: L1210 (mouse lymphocytic leukemia) cells; settings: reported in Leggans et al., Org. Lett. 2012; cited from earlier work
[16] = system: HCT116/VM46 (vinblastine-resistant strain of HCT116, Pgp over-expression) cells; settings: read-out: IC50 (nM) HCT116/VM46; reported in Leggans et al., Org. Lett. 2012; cited from earlier work
[17] = system: HCT116 (human colorectal carcinoma) cells; assay: Cell growth inhibition assay, HCT116; assay type: cell-based; settings: HCT116 human colon cancer cell line; avg of 4-16 determinations; read-out: IC50 (nM) HCT116
HCT116 (Colon) = assay: 15-cell line panel: HCT116; assay type: cell-based, human; settings: independent laboratory panel
[18] = system: human tumor 15-cell line panel; assay: Human tumor 15-cell line panel, whole panel (averages, ranges); assay type: cell-based; settings: for average IC50 value in human tumor cell line panel: comparative average

T1 sequence (P02550 whole entry): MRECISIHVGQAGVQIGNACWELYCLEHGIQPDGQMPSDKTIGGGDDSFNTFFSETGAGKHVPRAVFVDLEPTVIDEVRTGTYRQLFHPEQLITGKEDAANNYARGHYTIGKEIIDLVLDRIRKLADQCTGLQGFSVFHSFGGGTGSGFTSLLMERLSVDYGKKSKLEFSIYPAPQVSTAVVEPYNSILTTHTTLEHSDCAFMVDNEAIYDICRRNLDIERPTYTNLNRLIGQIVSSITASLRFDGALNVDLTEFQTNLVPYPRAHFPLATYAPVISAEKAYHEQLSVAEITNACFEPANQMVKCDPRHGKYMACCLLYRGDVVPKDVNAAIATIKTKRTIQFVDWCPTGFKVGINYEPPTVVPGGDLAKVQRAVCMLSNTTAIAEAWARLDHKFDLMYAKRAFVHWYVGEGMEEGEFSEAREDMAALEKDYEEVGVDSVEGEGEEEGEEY
T1 sequence (P02554 whole entry): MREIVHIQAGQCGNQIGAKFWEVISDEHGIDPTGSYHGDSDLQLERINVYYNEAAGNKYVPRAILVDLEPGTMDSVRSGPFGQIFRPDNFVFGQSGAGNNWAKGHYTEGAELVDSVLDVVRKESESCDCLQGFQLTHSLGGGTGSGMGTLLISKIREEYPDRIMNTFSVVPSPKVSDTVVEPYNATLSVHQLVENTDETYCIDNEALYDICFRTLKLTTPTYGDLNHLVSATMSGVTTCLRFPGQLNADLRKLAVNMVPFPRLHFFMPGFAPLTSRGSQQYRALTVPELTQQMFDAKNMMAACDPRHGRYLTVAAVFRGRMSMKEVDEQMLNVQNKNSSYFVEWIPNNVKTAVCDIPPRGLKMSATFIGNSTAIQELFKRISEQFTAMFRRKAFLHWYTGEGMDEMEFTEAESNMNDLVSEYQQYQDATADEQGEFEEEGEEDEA

| SMILES | IC50 [1] [nM] | IC50 [2] [nM] | IC50 [3] [nM] | IC50 (NCI-H520 (Lung)) [nM] | IC50 [4] [nM] | IC50 [5] [nM] | IC50 [6] [nM] | IC50 (LNCaP-FGC (Prostate)) [nM] | IC50 [7] [nM] | IC50 [8] [nM] | IC50 [9] [nM] | IC50 [10] [nM] | IC50 [11] [nM] | IC50 [12] [nM] | IC50 [13] [nM] | IC50 [14] [nM] | IC50 [17] [nM] | tubulin binding affinity compared with vinblastine (porcine tubulin) | IC50 (HCT116 (Colon)) [nM] | average enhancement over the activity of vinblastine in panel [18] [fold] | other results |
| --- | --- | --- | --- | --- | --- | --- | --- | --- | --- | --- | --- | --- | --- | --- | --- | --- | --- | --- | --- | --- | --- |
| CC[C@]1(O)C[C@@H]2CN(CCc3c([nH]c4ccccc34)[C@@](C(=O)OC)(c3cc4c(cc3OC)N(C)[C@H]3[C@@](O)(C(=O)OC)[C@H](OC(C)=O)[C@]5(CC)C=CCN6CC[C@]43[C@@H]65)C2)C1 [Vinblastine (1), Vinblastine, reference compound] | 6 | 600 | 4 | 4.5 | 3.8 | 3.5 | 2.9 | 5.1 | 19.6 | > 110 | 4.6 | 7.9 | 5 | 8 | 4.6 | > 110 |  |  |  |  | % ^3H-vinblastine remaining bound (porcine tubulin): 50.0%; IC50 [15]: 6 nM; IC50 [16]: 600 nM |
| CC[C@]1(NC(=O)N2Cc3ccccc3C2)C[C@@H]2CN(CCc3c([nH]c4ccccc34)[C@@](C(=O)OC)(c3cc4c(cc3OC)N(C)[C@H]3[C@@](O)(C(=O)OC)[C@H](OC(C)=O)[C@]5(CC)C=CCN6CC[C@]43[C@@H]65)C2)C1 [Compound 58] | 0.51 | 7.5 | 0.11 | 0.1 | 0.09 | 0.04 | 0.04 | 0.24 | 0.45 | > 12.5 | 0.39 | 0.45 | 0.41 | 0.45 | 0.11 | 3.5 | 0.6 | higher affinity than vinblastine | 0.16 | 30 | % ^3H-vinblastine remaining bound (porcine tubulin; ligand vs [^3H]VBL (1:1), normalized to VLB + [^3H]VLB = 50.0%): 41.2%; differential of HCT116/VM46 from sensitive HCT116 in panel [14]: 20 fold; average IC50 value in human tumor cell line panel [18]: 0.2 nM; pIC50 ([18]; range over cell lines, read-out: IC50 values across the panel): 9.35 to 10.40 |
| CCC1(NC(=O)N2CCc3ccccc3C2)CC2CN(CCc3c([nH]c4ccccc34)C(C(=O)OC)(c3cc4c(cc3OC)N(C)C3C(O)(C(=O)OC)C(OC(C)=O)C5(CC)C=CCN6CCC43C65)C2)C1 (stereo not shown) [Compound 57] | 0.62 | 8.7 | 0.13 | 0.14 | 0.16 | 0.13 | 0.06 |  | 0.3 | 2.1 | 0.12 | 1.2 | 0.55 | 0.52 | 0.19 | 6.6 | 0.56 | higher affinity than vinblastine | 0.26 | 30 | pIC50 (LNCaP-FGC (Prostate); read-out: IC50 LNCaP-FGC): 10.70; average IC50 value in human tumor cell line panel [18]: 0.2 nM |
